Measured values from PubChem BioAssay (NCI).
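Cultured in 96-well plates, cells were exposed to test compound for 48 hours across five concentrations. TGI is the concentration that stops growth completely.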

How the values were obtained:
Test in all cases: growth of human tumour cells (NCI), 48 h
M19-MEL melanoma = test system: M19-MEL melanoma
NCI-H460 lung = test system: NCI-H460 lung
UO-31 renal = test system: UO-31 renal
KM20L2 colon = test system: KM20L2 colon
XF 498 CNS = test system: XF 498 CNS
SNB-19 CNS = test system: SNB-19 CNS
SN12C renal = test system: SN12C renal
OVCAR-5 ovarian = test system: OVCAR-5 ovarian
HCT-116 colon = test system: HCT-116 colon
MALME-3M melanoma = test system: MALME-3M melanoma
LXFL 529 NSCLC = test system: LXFL 529 NSCLC
OVCAR-4 ovarian = test system: OVCAR-4 ovarian
NCI-H226 lung = test system: NCI-H226 lung
TK-10 renal = test system: TK-10 renal
UACC-62 melanoma = test system: UACC-62 melanoma
U251 CNS = test system: U251 CNS
SF-539 CNS = test system: SF-539 CNS
HCC-2998 colon = test system: HCC-2998 colon
LOX IMVI melanoma = test system: LOX IMVI melanoma
EKVX NSCLC = test system: EKVX NSCLC
HT29 colon = test system: HT29 colon
SK-MEL-2 melanoma = test system: SK-MEL-2 melanoma
SK-OV-3 ovarian = test system: SK-OV-3 ovarian
DLD-1 colon = test system: DLD-1 colon
UACC-257 melanoma = test system: UACC-257 melanoma
HCT-15 colon = test system: HCT-15 colon
NCI-H23 lung = test system: NCI-H23 lung
M14 melanoma = test system: M14 melanoma
ACHN renal = test system: ACHN renal
RXF 393 renal = test system: RXF 393 renal
HOP-62 NSCLC = test system: HOP-62 NSCLC
SF-268 CNS = test system: SF-268 CNS
OVCAR-3 ovarian = test system: OVCAR-3 ovarian
SNB-78 CNS = test system: SNB-78 CNS
SK-MEL-28 melanoma = test system: SK-MEL-28 melanoma
SNB-75 CNS = test system: SNB-75 CNS
KM12 colon = test system: KM12 colon
DMS 114 small cell lung = test system: DMS 114 small cell lung
SR leukemia = test system: SR leukemia
A549 NSCLC = test system: A549 NSCLC
RPMI-8226 leukemia = test system: RPMI-8226 leukemia
786-0 renal = test system: 786-0 renal
K-562 leukemia = test system: K-562 leukemia
NCI-H522 lung = test system: NCI-H522 lung
HOP-18 NSCLC = test system: HOP-18 NSCLC
SW-620 colon = test system: SW-620 colon
HOP-92 NSCLC = test system: HOP-92 NSCLC
HL-60(TB) leukemia = test system: HL-60(TB) leukemia
COLO 205 colon = test system: COLO 205 colon
SF-295 CNS = test system: SF-295 CNS
OVCAR-8 ovarian = test system: OVCAR-8 ovarian
MOLT-4 leukemia = test system: MOLT-4 leukemia
IGROV1 ovarian = test system: IGROV1 ovarian
DMS 273 small cell lung = test system: DMS 273 small cell lung
CAKI-1 renal = test system: CAKI-1 renal
CCRF-CEM leukemia = test system: CCRF-CEM leukemia
SK-MEL-5 melanoma = test system: SK-MEL-5 melanoma

CC(C)C(C)C(C)(C)P(C)(C)=O (stereo unspecified)
TGI (M19-MEL melanoma): > 100 µM
TGI (NCI-H460 lung): > 100 µM
TGI (UO-31 renal): > 100 µM
TGI (KM20L2 colon): > 100 µM
TGI (XF 498 CNS): > 100 µM
TGI (SNB-19 CNS): > 100 µM
TGI (SN12C renal): > 100 µM
TGI (OVCAR-5 ovarian): > 100 µM
TGI (HCT-116 colon): > 100 µM
TGI (MALME-3M melanoma): > 100 µM
TGI (LXFL 529 NSCLC): > 100 µM
TGI (OVCAR-4 ovarian): > 100 µM
TGI (NCI-H226 lung): > 100 µM
TGI (TK-10 renal): > 100 µM
TGI (UACC-62 melanoma): > 100 µM
TGI (U251 CNS): > 100 µM
TGI (SF-539 CNS): > 100 µM
TGI (HCC-2998 colon): > 100 µM
TGI (LOX IMVI melanoma): > 100 µM
TGI (EKVX NSCLC): > 100 µM
TGI (HT29 colon): > 100 µM
TGI (SK-MEL-2 melanoma): > 100 µM
TGI (SK-OV-3 ovarian): > 100 µM
TGI (DLD-1 colon): > 100 µM
TGI (UACC-257 melanoma): > 100 µM
TGI (HCT-15 colon): > 100 µM
TGI (NCI-H23 lung): > 100 µM
TGI (M14 melanoma): > 100 µM
TGI (ACHN renal): > 100 µM
TGI (RXF 393 renal): > 100 µM
TGI (HOP-62 NSCLC): > 100 µM
TGI (SF-268 CNS): > 100 µM
TGI (OVCAR-3 ovarian): > 100 µM
TGI (SNB-78 CNS): > 100 µM
TGI (SK-MEL-28 melanoma): > 100 µM
TGI (SNB-75 CNS): > 100 µM
TGI (KM12 colon): > 100 µM
TGI (DMS 114 small cell lung): > 100 µM

CC(=O)OC(CCC1(C)OC1COc1ccc(CCNC(=O)c2ccccc2)cc1)C(C)(C)OC(C)=O (stereo unspecified)
TGI (M19-MEL melanoma): 69 µM
TGI (SR leukemia): > 100 µM
TGI (NCI-H460 lung): 36.7 µM
TGI (UO-31 renal): > 100 µM
TGI (KM20L2 colon): > 100 µM
TGI (SN12C renal): > 100 µM
TGI (A549 NSCLC): > 100 µM
TGI (OVCAR-5 ovarian): > 100 µM
TGI (HCT-116 colon): 45.5 µM
TGI (MALME-3M melanoma): 80.1 µM
TGI (LXFL 529 NSCLC): 34.6 µM
TGI (OVCAR-4 ovarian): > 100 µM
TGI (RPMI-8226 leukemia): > 100 µM
TGI (NCI-H226 lung): > 100 µM
TGI (TK-10 renal): > 100 µM
TGI (786-0 renal): > 100 µM
TGI (UACC-62 melanoma): 31.4 µM
TGI (K-562 leukemia): > 100 µM
TGI (U251 CNS): > 100 µM
TGI (SF-539 CNS): > 100 µM
TGI (LOX IMVI melanoma): > 100 µM
TGI (NCI-H522 lung): > 100 µM
TGI (HOP-18 NSCLC): > 100 µM
TGI (SW-620 colon): > 100 µM
TGI (HOP-92 NSCLC): > 100 µM
TGI (HL-60(TB) leukemia): > 100 µM
TGI (HT29 colon): 44 µM
TGI (SK-MEL-2 melanoma): 60.4 µM
TGI (SK-OV-3 ovarian): > 100 µM
TGI (DLD-1 colon): > 100 µM
TGI (UACC-257 melanoma): 25.8 µM
TGI (HCT-15 colon): > 100 µM
TGI (COLO 205 colon): 58.4 µM
TGI (NCI-H23 lung): 97.2 µM
TGI (SF-295 CNS): > 100 µM
TGI (M14 melanoma): 30.1 µM
TGI (ACHN renal): > 100 µM
TGI (RXF 393 renal): 43.8 µM
TGI (HOP-62 NSCLC): > 100 µM
TGI (OVCAR-8 ovarian): 41.4 µM
TGI (MOLT-4 leukemia): > 100 µM
TGI (SF-268 CNS): > 100 µM
TGI (IGROV1 ovarian): > 100 µM
TGI (DMS 273 small cell lung): 24.8 µM
TGI (OVCAR-3 ovarian): 54.5 µM
TGI (SNB-78 CNS): > 100 µM
TGI (CAKI-1 renal): > 100 µM
TGI (SK-MEL-28 melanoma): 91.8 µM
TGI (CCRF-CEM leukemia): > 100 µM
TGI (SNB-75 CNS): > 100 µM
TGI (KM12 colon): 33.7 µM
TGI (DMS 114 small cell lung): 15.8 µM
TGI (SK-MEL-5 melanoma): 17.4 µM
